Assay: Inhibition of GSK3-beta phosphorylation in human BT474 cells

IC50 [nM]	Compound
260	Cc1n[nH]c2ncc(-c3cc(OC[C@@H](N)Cc4c[nH]c5ccccc45)cnc3-c3ccoc3)cc12 [(S)-1-(6-(furan-3-yl)-5-(3-methyl-1H-pyrazolo[3,4-b]pyridin-5-yl)pyridin-3-yloxy)-3-(1H-indol-3-yl)propan-2-amine]
64	Cc1n[nH]c2cnc(-c3cc(OC[C@@H](N)Cc4c[nH]c5ccccc45)cnc3-c3ccoc3)cc12 [(S)-1-(6-(furan-3-yl)-5-(3-methyl-1H-pyrazolo[3,4-c]pyridin-5-yl)pyridin-3-yloxy)-3-(1H-indol-3-yl)propan-2-amine]
160	Cc1n[nH]c2ncc(-c3cc(OC[C@@H](N)Cc4c[nH]c5ccccc45)cnc3-c3ccoc3)nc12 [(S)-1-(6-(furan-3-yl)-5-(3-methyl-1H-pyrazolo[4,3-b]pyrazin-5-yl)pyridin-3-yloxy)-3-(1H-indol-3-yl)propan-2-amine]
3860	Cc1n[nH]c2ccc(-c3cc(OC[C@@H](N)Cc4c[nH]c5ccccc45)cnc3-c3ccoc3)nc12 [(S)-1-(6-(furan-3-yl)-5-(3-methyl-1H-pyrazolo[4,3-b]pyridin-5-yl)pyridin-3-yloxy)-3-(1H-indol-3-yl)propan-2-amine]

Source: BindingDB's records for doi:10.1016/j.bmcl.2009.11.060 (Glaxosmithkline, 2010)
